# From US8163909B2, “Substituted hydroxyethyl amine compounds as beta-secretase modulators and methods of use” (Amgen Inc., priority 2007, dated 2012)
# Like-named read-outs stand apart in the source and are kept apart here.
# Columns and labels:
# [1] = Microsomal stability assay, rat liver microsomes;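 note: rat liver microsomes (0.25 mg/mL) with about 1 µM compound plus 1 mM NADPH, pH 7.4, 37 °C for 30 min, parent left measured by LC-MS/MS against 0 min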
# [2] = Microsomal stability assay, human liver microsomes;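 note: pooled human liver microsomes at 0.25 mg/mL with 1 µM compound and NADPH at 37 °C, pH 7.4, for 30 min, unchanged parent quantified by LC-MS/MS against the 0 min sample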
# Abeta peptide = test: In vivo inhibition of beta-secretase (reduction of Abeta peptide in brain and cerebrospinal fluid); parameters: species or system rat; conditions: Rattus norvegicus, po, 4 h, orally administered at 30 mg/kg dose, measured after 4 hours;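 note: abeta peptide quantified by sandwich ELISA with electrochemiluminescence readout in rat brain supernatant or CSF, relative to vehicle-dosed control animals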
# [3] = test system: Aβ40 in conditioned medium of cells stably expressing Amyloid Precursor Protein (APP); test: In vitro BACE cell-based assay (Aβ40 in conditioned medium, sandwich ELISA); conditions: Homo sapiens;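 note: compounds added as a dilution series, secreted peptide quantified by europium time-resolved fluorescence readout, potency fitted from percent of control versus compound concentration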
# CYP3A4 (CYP3A) = CYP3A4 (CYP3A) (Homo sapiens, UniProt P08684); test: in vitro; conditions: microsomes, pH 7.4;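 note: inhibition of CYP3A-mediated 1-hydroxymidazolam formation after 10 min incubation with NADPH, quantified by HPLC MS relative to metabolite produced without test compound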
# [4] = molecular target: Beta Secretase enzyme (BACE) (Homo sapiens, UniProt P56817); test: In vitro enzymatic BACE FRET (fluorescence resonance energy transfer) assay; assay type: biochemical;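 note: fluorescence read after 1 h with 50 nM quenched peptide substrate spanning the BACE cleavage site, in pH 4.2 acetate buffer containing 10% DMSO and nonionic detergent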
# CYP2D6 = CYP2D6 (Homo sapiens, UniProt P10635); test: CYP2D6 inhibition assay (bufuralol, pooled human liver microsomes)
# [5] = rat cerebrospinal fluid, read-out: percent reduction of abeta peptide in the cerebrospinal fluid of the rat
# [6] = HEK293, HEK cell-based assay IC50, read-out: HEK cell assay
# [7] = BACE enzyme assay IC50, read-out: BACE1 FRET assay
# [8] = 2D6 IC50 (uM), CYP2D6 inhibition
# [9] = HEK293, HEK cells, read-out: HEK cell assay
# [10] = BACE enzyme assay, read-out: BACE1 FRET assay
# [11] = 2D6 IC50 (uM), CYP enzyme inhibition
# [12] = rat brain, read-out: percent reduction of abeta peptide in the brain of the rat
# [13] = HEK293, HEK cells, read-out: HEK cell assay (IC50)
# [14] = read-out: BACE1 FRET assay (IC50)
# CYP3A4 (CYP3A), sequence (P08684 2-503): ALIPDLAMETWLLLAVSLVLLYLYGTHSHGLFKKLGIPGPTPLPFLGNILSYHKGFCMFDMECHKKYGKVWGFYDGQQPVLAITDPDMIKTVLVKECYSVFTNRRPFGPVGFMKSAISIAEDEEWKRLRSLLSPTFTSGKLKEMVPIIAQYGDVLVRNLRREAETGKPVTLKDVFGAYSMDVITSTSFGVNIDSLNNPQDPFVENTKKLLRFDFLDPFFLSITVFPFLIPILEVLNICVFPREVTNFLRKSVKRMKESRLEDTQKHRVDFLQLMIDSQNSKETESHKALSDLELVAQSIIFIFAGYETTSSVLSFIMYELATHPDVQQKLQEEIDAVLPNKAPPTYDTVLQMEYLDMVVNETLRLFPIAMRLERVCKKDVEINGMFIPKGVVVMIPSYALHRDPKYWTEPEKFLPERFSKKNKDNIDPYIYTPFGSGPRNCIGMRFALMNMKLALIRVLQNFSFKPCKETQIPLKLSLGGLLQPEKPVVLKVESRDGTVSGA
# Beta Secretase enzyme (BACE), sequence (P56817 46-501): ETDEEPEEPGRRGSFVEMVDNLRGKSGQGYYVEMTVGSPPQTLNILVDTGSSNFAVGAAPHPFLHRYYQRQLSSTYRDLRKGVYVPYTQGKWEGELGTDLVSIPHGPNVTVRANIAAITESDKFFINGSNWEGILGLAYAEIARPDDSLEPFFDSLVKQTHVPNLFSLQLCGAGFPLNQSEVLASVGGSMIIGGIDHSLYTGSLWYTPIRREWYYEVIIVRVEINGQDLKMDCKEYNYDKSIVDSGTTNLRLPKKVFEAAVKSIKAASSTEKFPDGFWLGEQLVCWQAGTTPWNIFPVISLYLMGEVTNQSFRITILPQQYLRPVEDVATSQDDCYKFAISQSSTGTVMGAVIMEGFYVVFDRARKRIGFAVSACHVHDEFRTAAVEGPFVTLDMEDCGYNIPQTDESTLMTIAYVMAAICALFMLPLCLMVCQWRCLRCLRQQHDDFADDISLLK
# CYP2D6, sequence (P10635 whole entry): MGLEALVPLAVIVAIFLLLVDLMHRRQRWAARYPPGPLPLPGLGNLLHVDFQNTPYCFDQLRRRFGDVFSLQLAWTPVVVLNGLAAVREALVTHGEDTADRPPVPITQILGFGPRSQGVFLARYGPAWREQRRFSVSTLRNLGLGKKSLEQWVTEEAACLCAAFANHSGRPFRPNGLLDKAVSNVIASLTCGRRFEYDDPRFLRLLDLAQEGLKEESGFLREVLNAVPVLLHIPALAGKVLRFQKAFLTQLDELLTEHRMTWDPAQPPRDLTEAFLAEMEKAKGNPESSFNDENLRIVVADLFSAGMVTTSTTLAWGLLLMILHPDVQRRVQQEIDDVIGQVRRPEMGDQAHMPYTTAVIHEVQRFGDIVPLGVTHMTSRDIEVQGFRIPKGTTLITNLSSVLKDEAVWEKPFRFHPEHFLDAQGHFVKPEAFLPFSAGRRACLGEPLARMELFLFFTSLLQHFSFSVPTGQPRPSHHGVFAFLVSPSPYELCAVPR
SMILES,RLM ([1]; rat liver microsomes),HLM ([2]; human liver microsomes),inhibition in vivo at 30 mg/kg (Abeta peptide; [5]),"IC50 [3, 6]",IC50 (CYP3A4 (CYP3A)),"IC50 [4, 7]",IC50 (CYP2D6; [8]),RLM ([1]; rat liver microsomal data),HLM ([2]; human liver microsomal data),"IC50 [3, 9]","IC50 [4, 10]",IC50 (CYP2D6; [11]),inhibition in vivo at 30 mg/kg (Abeta peptide; [12]),"IC50 [3, 13]","IC50 [4, 14]","IC50 (CYP2D6; 2D6 IC50, CYP2D6 inhibition)","IC50 ([3]; HEK293, HEK cell-based assay, IC50's in uM, read-out: HEK cell assay)","IC50 ([4]; BACE enzyme assay, IC50's in uM, read-out: BACE1 FRET assay)"
"COCC(=O)N[C@@H](Cc1cccc(-n2ccnc2)c1)[C@H](O)CN[C@H]1CC2(CCC2)Oc2ncc(CC(C)(C)C)cc21 [Example 698, N-((1S,2R)-3-(((4′S)-6′-(2,2-dimethylpropyl)-3′,4′-dihydrospiro[cyclobutane-1,2′-pyrano[2,3-b]pyridin]-4′-yl)amino)-2-hydroxy-1-(3-(1H-imidazol-1-yl)benzyl)propyl)-2-methoxyacetamide]",33 µL/min/mg,58 µL/min/mg,10 to 80%,0.009 µM,≤ 30 nM,0.026 µM,0.1 µM,,,,,,,,,,,
"CC(=O)N[C@@H](Cc1cc(F)cc(-c2cncs2)c1)[C@H](O)CN[C@H]1CC2(CCC2)Oc2ncc(CC(C)(C)C)cc21 [Example 671, N-((1S,2R)-3-(((4′S)-6′-(2,2-dimethylpropyl)-3′,4′-dihydrospiro[cyclobutane-1,2′-pyrano[2,3-b]pyridin]-4′-yl)amino)-1-(3-fluoro-5-(1,3-thiazol-5-yl)benzyl)-2-hydroxypropyl)acetamide]",48 µL/min/mg,99 µL/min/mg,10 to 80%,0.012 µM,100 nM,0.005 µM,0.4 µM,,,,,,,,,,,
CO[C@H](C)C(=O)N[C@@H](Cc1cccc(F)c1)[C@H](O)CN[C@H]1CC2(CCC2)Oc2c1cc(CC(C)C)cc2-n1ccnc1 [Example 521],,,10 to 80%,,100 nM,,,142 µL/min/mg,27 µL/min/mg,0.015 µM,0.019 µM,1.9 µM,,,,,,
CO[C@H](C)C(=O)N[C@@H](Cc1cc(F)cc(F)c1)[C@H](O)CN[C@H]1CC2(CCC2)Oc2c1cc(CC(C)C)nc2-c1ccncc1 [Example 687],91 µL/min/mg,27 µL/min/mg,10 to 80%,0.016 µM,≤ 30 nM,0.008 µM,0.2 µM,,,,,,,,,,,
"CC(=O)N[C@@H](Cc1cc(F)cc(-c2nccs2)c1)[C@H](O)CN[C@H]1CC2(CCC2)Oc2ncc(CC(C)(C)C)cc21 [Example 643, N-((1S,2R)-3-(((4′S)-6′-(2,2-dimethylpropyl)-3′,4′-dihydrospiro[cyclobutane-1,2′-pyrano[2,3-b]pyridin]-4′-yl)amino)-1-(3-fluoro-5-(1,3-thiazol-2-yl)benzyl)-2-hydroxypropyl)acetamide]",56 µL/min/mg,68 µL/min/mg,10 to 80%,,100 nM,,,,,,,,5 to 80%,0.012 µM,0.002 µM,0.7 µM,,
COCC(=O)N[C@@H](Cc1cc(F)cc(F)c1)[C@H](O)CN[C@H]1CC2(CCC2)Oc2c1cc(CC(C)(C)C)nc2-c1ccncc1 [Example 528],,,10 to 80%,,100 nM,,,72 µL/min/mg,19 µL/min/mg,0.023 µM,0.01 µM,1.3 µM,,,,,,
"COCC(=O)N[C@@H](Cc1cc(F)cc(-c2nccs2)c1)[C@H](O)CN[C@H]1CC2(CCC2)Oc2cnc(CC(C)(C)C)cc21 [Example 782, N-((1S,2R)-3-(((4′S)-6′-(2,2-dimethylpropyl)-3′,4′-dihydrospiro[cyclobutane-1,2′-pyrano[2,3-c]pyridin]-4′-yl)amino)-1-(3-fluoro-5-(1,3-thiazol-2-yl)benzyl)-2-hydroxypropyl)-2-methoxyacetamide]",,,10 to 80%,,300 nM,,,130 µL/min/mg,94 µL/min/mg,,,0.4 µM,5 to 80%,,,,0.036 µM,0.015 µM
CC(=O)N[C@@H](Cc1ccc(F)c(-c2nccs2)c1)[C@H](O)CN[C@H]1CC2(CCC2)Oc2ccc(CC(C)(C)C)cc21 [Example 640],113 µL/min/mg,59 µL/min/mg,10 to 80%,,700 nM,,,,,,,,,0.053 µM,0.006 µM,0.3 µM,,
